Measured values from publication PMC7647782, “Cytotoxic, Antioxidant, and Metabolic Enzyme Inhibitory Activities of Euphorbia cyparissias Extracts” (Oxidative Medicine and Cellular Longevity, 2020).

Target: DrPLA2-IB (Camelus dromedarius, UniProt A0A5N4C9D4)
Assay: Phospholipase activity inhibition, dromedary PLA2-IB
Format: biochemical
Protocol: Dromedary (DrPlA2-IB), porcine (PPPlA2-IB), and stingray group IB phospholipases (SPLA2-IB) were purified and prepared as described in our previous works and De Haas et al., respectively. Dromedary (DrPL), stingray (SPL), and porcine (PPL) lipases were also purified according to protocols optimized in previous works. The enzymes β-glucosidase, α-amylase, and XO were purchased from Sigma-Aldrich (St. Louis, MO, USA).
The phospholipase activities were measured based on the De Araújo and Radvanyi method. The inhibitory effect of various extracts was determined using samples of dromedary, stingray, and porcine digestive group IB phospholipases (PLA2-IB). A 10 μL sample of ethanolic or aqueous extract was mixed with 10 μL of PLA2-GIB and preincubated for 20 min at room temperature. The mixture was added to 1 mL of the substrate, which was composed of lecithin (3.5 mM) solubilized in 100 mM NaCl, 3 mM sodium taurodeoxycholate, 10 mM CaCl2, and 0.055 mM red phenol at a pH of 7.6. The activity was verified by measuring spectrophotometrically the absorbance at 558 nm for 5 min. The inhibition percentage was calculated by measuring residual activity compared to negative control assay (absence of extract). The IC50 values were determined from the curve.
The activities of these enzymes were measured using the pH-stat technique on olive oil emulsion at optimal conditions for enzyme activity. […]

Chain of DrPLA2-IB (A0A5N4C9D4 23-145): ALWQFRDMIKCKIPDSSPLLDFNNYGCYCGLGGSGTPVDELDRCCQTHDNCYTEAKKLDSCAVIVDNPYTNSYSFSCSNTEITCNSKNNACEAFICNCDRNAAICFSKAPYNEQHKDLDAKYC

CC1(C)CC[C@]2(C(=O)O)CC[C@]3(C)C(=CC[C@@H]4[C@@]5(C)CC[C@H](O)C(C)(C)[C@@H]5CC[C@]43C)[C@@H]2C1 [Oleanolic acid, oleanolic acid]
IC50: 174 µM
